Reference: ChEMBL document CHEMBL4270617, “Design, synthesis, antimicrobial, antiquorum-sensing and antitumor evaluation of new series of pyrazolopyridine derivatives” (Eur J Med Chem, 2018)
In brackets after ≈: the same amount, converted by molar mass.

Columns and labels:
[1] = system: Ehrlich; assay: Antitumor activity against mouse EAC cells allografted in Swiss mouse assessed as tumor volume at 0.5 mg/mouse administered for 9 days (reference value: 10.15 mL); type: functional
[2] = system: Staphylococcus aureus; assay: Antibacterial activity against Staphylococcus aureus ATCC 29213 after 24 hrs by two-fold serial dilution method; type: functional; conditions: ATCC 29213, 24 h
[3] = system: HeLa; assay: Antitumor activity against human HeLa cells assessed as inhibition of cell proliferation after 48 hrs by MTT assay; type: functional, cell-based; conditions: read-out: IC50
[4] = system: Mus musculus; assay: Toxicity in Swiss albino mouse implanted with mouse EAC cells assessed as hemoglobin level at 0.5 mg/mouse administered for 9 days (reference value: 7.05 g/dl); type: organism-based; conditions: in vivo, 216 h
[5] = Displacement of methyl green from DNA (unknown origin) incubated in dark for 24 hrs
[6] = system: Mus musculus; assay: Toxicity in Swiss albino mouse implanted with mouse EAC cells assessed as RBC count at 0.5 mg/mouse administered for 9 days (reference value: 3.59 10^6/mm3); type: organism-based; conditions: in vivo, 216 h
[7] = system: Aspergillus flavus; assay: Antifungal activity against Aspergillus flavus 3375 after 48 hrs by two-fold serial dilution method; type: functional; conditions: Aspergillus flavus, 3375, 48 h
[8] = system: Bacillus cereus; assay: Antibacterial activity against Bacillus cereus UW 85 after 24 hrs by two-fold serial dilution method; type: functional; conditions: UW 85, 24 h
[9] = system: Chromobacterium violaceum; assay: Inhibition of quorum sensing system in Chromobacterium violaceum ATCC 12472 assessed as diameter of violacein pigment inhibition at 5 mg/ml after 48 hrs
[10] = system: Mus musculus; assay: Toxicity in Swiss albino mouse implanted with mouse EAC cells assessed as WBC count at 0.5 mg/mouse administered for 9 days (reference value: 20.53 10^3/mm3); type: organism-based; conditions: in vivo, 216 h
[11] = system: Ehrlich; assay: Antitumor activity against mouse EAC cells allografted in Swiss mouse assessed as viable tumor cell count at 0.5 mg/mouse administered for 9 days (reference value: 77.41 10^6/ml); type: functional
[12] = system: Pseudomonas aeruginosa; assay: Antibacterial activity against Pseudomonas aeruginosa PAO1 after 24 hrs by two-fold serial dilution method; type: functional; conditions: PAO1, 24 h
[13] = system: Escherichia coli; assay: Antibacterial activity against Escherichia coli ATCC 12435 after 24 hrs by two-fold serial dilution method; type: functional; conditions: ATCC 12435, 24 h
[14] = system: MCF7; assay: Antitumor activity against human MCF7 cells assessed as inhibition of cell proliferation after 48 hrs by MTT assay; type: functional, cell-based; conditions: MCF7, 48 h
[15] = system: Aspergillus fumigatus; assay: Antifungal activity against Aspergillus fumigatus 293 after 48 hrs by two-fold serial dilution method; type: functional; conditions: Aspergillus fumigatus, 293, 48 h
[16] = system: Ehrlich; assay: Antitumor activity against mouse EAC cells allografted in Swiss mouse assessed as increase in life span at 0.5 mg/mouse administered for 9 days relative to control; type: functional
[17] = system: WI-38; assay: Cytotoxicity against human W138 cells after 48 hrs by MTT assay; type: cell-based; conditions: WI-38, 48 h
[18] = system: Ehrlich; assay: Antitumor activity against mouse EAC cells allografted in Swiss mouse assessed as mean survival time at 0.5 mg/mouse administered for 9 days (reference value: 18 day); type: functional
[19] = system: WISH; assay: Cytotoxicity against human WISH cells after 48 hrs by MTT assay; type: cell-based
[20] = system: Candida albicans; assay: Antifungal activity against Candida albicans after 48 hrs by two-fold serial dilution method; type: functional
[21] = system: HepG2; assay: Antitumor activity against human HepG2 cells assessed as inhibition of cell proliferation after 48 hrs by MTT assay; type: functional, cell-based; conditions: HepG2, 48 h

Compound | Activity [1] | MIC [2] | IC50 [3] | Activity [4] | IC50 [5] | Activity [6] | MIC [7] | MIC [8] | diameter of the inhibition zone (DIZ) [9] | Activity [10] | Activity [11] | MIC [12] | MIC [13] | IC50 [14] | MIC [15] | Activity [16] | IC50 [17] | MSD [18] | IC50 [19] | MIC [20] | also measured
CCOC(=O)C1=C(NN=C(C(C)=O)C(C)=O)Nc2[nH]nc(C)c2C1c1ccc(N(C)C)cc1 (centres undefined) | 1.9 mL | 2210 µM | 17 µM | 13.45 g/dL | 35.5 µM | 5.65 ×10⁶ /mm3 | 1100 µM | 552 µM | < 2 mm | 8.84 ×10³ /mm3 | 27.53 ×10⁶ /ml | 552 µM | 552 µM (≈ 250 µg/mL) | 9.74 µM | 4420 µM | 172.2% | 61.4 µM | 49 days | 58.7 µM | 2210 µM | IC50 [21]: 8.48 µM
CCOC(=O)C1=C(N)Nc2[nH]nc(C)c2C1c1ccc(N(C)C)cc1 (centres undefined) | 1.05 mL | > 200 µg/mL | 6.22 µM | 14.15 g/dL | 32.4 µM | 6.26 ×10⁶ /mm3 | > 200 µg/mL | > 200 µg/mL | < 2 mm | 6.38 ×10³ /mm3 | 18.64 ×10⁶ /ml | > 200 µg/mL | 683 µM (≈ 233 µg/mL) | 5.06 µM | > 200 µg/mL | 261.1% | 84 µM | 65 days | 94.6 µM | > 200 µg/mL | IC50 [21]: 4.24 µM
CCOC(=O)C1=C(NN=C(C#N)C#N)Nc2[nH]nc(C)c2C1c1ccc(N(C)C)cc1 (centres undefined) | 2.25 mL | 4780 µM | 15.2 µM | 12.65 g/dL | 44 µM | 5.14 ×10⁶ /mm3 | 2390 µM | 2390 µM | < 2 mm | 10.69 ×10³ /mm3 | 30.93 ×10⁶ /ml | 1190 µM | 2390 µM (≈ 1000 µg/mL) | 12.1 µM | 2390 µM | 116.7% | 42.7 µM | 39 days | 45.2 µM | 2390 µM | IC50 [21]: 13.7 µM
CCOC(=O)C1=C(N/C=N/c2ncc(-c3ccccc3)s2)Nc2[nH]nc(C)c2C1c1ccc(N(C)C)cc1 (centres undefined) | 3.8 mL | 59.2 µM | 15.4 µM | 11.9 g/dL | 74.2 µM | 4.85 ×10⁶ /mm3 | 3790 µM | 59.2 µM | 3 mm | 11.83 ×10³ /mm3 | 48.56 ×10⁶ /ml | 474 µM | 474 µM (≈ 250 µg/mL) | 10.1 µM | 3790 µM | 88.9% | 33.5 µM | 34 days | 29.5 µM | 1900 µM | IC50 [21]: 9.79 µM
